Data taken from patent publication US20200121677A1, “SUBSTITUTED 6,7-DIHYDROPYRAZOLO[1,5-a]PYRAZINES AS NEGATIVE ALLOSTERIC MODULATORS OF MGLUR2 RECEPTORS” (Janssen Pharmaceutica NV, priority 2014, published 2020).
Where a name gives a salt, the structure may show the parent alone.

What was measured:
human mGlu2 receptor = human mGlu2 receptor (Homo sapiens, UniProt Q14416); experiment: [35S]GTPγS binding assay, mGluR2 negative allosteric modulation (membranes from CHO cells transfected with human mGlu2 receptor, glutamate ~EC80 60 μM); settings: for IC50: GTPγS - hmGluR2 anGT pIC50, membranes with human mGlu2 receptor, glutamate ~EC80 (60 μM), pIC50 = -log IC50 (M); for Emax: read-out: GTPγS - hmGluR2 anGT Emax, relative maximal effect: maximal % inhibition relative to the control glutamate response;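 on all read-outs here: membranes preincubated 30 min at 30 °C with compound plus glutamate, then [35S]GTPγS (0.1 nM) incorporation measured over another 30 min at 30 °C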
Sequence of human mGlu2 receptor (Q14416 19-872): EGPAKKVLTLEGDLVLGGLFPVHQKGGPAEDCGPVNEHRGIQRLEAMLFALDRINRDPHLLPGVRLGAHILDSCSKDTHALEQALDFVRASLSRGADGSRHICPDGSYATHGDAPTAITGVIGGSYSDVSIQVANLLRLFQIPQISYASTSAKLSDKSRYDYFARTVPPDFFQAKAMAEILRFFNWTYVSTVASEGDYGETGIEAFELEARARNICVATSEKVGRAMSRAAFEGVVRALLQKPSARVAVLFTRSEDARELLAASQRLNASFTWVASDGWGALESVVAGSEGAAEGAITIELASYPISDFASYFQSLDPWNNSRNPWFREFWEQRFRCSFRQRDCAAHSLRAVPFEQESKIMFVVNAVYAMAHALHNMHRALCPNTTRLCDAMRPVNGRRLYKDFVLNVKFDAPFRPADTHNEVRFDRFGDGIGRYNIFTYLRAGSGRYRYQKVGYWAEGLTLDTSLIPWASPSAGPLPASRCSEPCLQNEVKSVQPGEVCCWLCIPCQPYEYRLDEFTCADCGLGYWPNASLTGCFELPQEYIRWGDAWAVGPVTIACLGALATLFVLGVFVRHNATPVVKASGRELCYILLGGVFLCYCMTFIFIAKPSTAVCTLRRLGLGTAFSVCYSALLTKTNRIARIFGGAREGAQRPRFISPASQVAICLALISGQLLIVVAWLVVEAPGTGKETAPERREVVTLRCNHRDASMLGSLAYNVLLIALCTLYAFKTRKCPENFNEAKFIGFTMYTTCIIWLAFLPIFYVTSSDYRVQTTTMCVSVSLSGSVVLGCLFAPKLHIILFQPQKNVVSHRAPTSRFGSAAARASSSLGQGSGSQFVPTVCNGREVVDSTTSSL

Row | melting point [°C] | IC50 (human mGlu2 receptor) [M] | Emax (human mGlu2 receptor) [%] | SMILES
1 | 146.4 |  |  | C[C@H]1CN(c2ccc(C(F)(F)F)cc2)C(=O)c2c(C(=O)Nc3cncc(F)c3)cnn21 (as salt: HCl) [13a]
2 | 186.7 | 7.08e-08 | 104 | CC(NC(=O)c1cnn2c1C(=O)N(c1ccc(C(F)(F)F)cc1)C[C@@H]2C)C1CC1 (single isomer, unassigned) [compound 61]
3 | 217.7 | 1.7e-09 | 103 | C[C@H]1CN(c2ccc(C(F)(F)F)cc2)C(=O)c2c(C(=O)Nc3cccc(S(C)(=O)=O)c3)cnn21 [compound 2]
4 | 198.2 | 3.09e-09 | 107 | C[C@H]1CN(c2ccc(C(F)(F)F)cc2)C(=O)c2c(C(=O)Nc3ccc(S(C)(=O)=O)cc3)cnn21 [compound 6]
5 | 171.6 | 2e-08 | 113 | Cc1ncccc1NC(=O)c1cnn2c1C(=O)N(c1ccc(C(F)(F)F)cc1)C[C@@H]2C [compound 10]
6 | 164.7 | 2.4e-07 | 109 | COc1cccnc1NC(=O)c1cnn2c1C(=O)N(c1ccc(C(F)(F)F)cc1)C[C@@H]2C [compound 11]
7 | 200.8 | 1.38e-08 | 115 | COc1cnccc1NC(=O)c1cnn2c1C(=O)N(c1ccc(C(F)(F)F)cc1)C[C@@H]2C [compound 16]
8 | 246.7 | 3.55e-09 | 109 | Cc1cncc(NC(=O)c2cnn3c2C(=O)N(c2ccc(C(F)(F)F)c(F)c2)C[C@@H]3C)c1 [compound 22]
9 | 204 | 3.24e-09 | 107 | C[C@H]1CN(c2ccc(C(F)(F)F)c(F)c2)C(=O)c2c(C(=O)Nc3cncc(F)c3)cnn21 [compound 24]
10 | 160.4 | 2.29e-08 | 109 | COCc1cc(N2C[C@H](C)n3ncc(C(=O)Nc4ccccn4)c3C2=O)ccc1C(F)(F)F [compound 31]
11 | 191.5 | 1.05e-08 | 107 | COc1cncc(NC(=O)c2cnn3c2C(=O)N(c2ccc(C(F)(F)F)c(OC)c2)C[C@@H]3C)c1 [compound 34]
12 | 168.1 | 1.74e-09 | 108 | C[C@H]1CN(c2ccc(C(F)(F)F)c(Cl)c2)C(=O)c2c(C(=O)Nc3cncc(F)c3)cnn21 [compound 50]
13 | 214.9 | 1.41e-09 | 113 | COc1cncc(NC(=O)c2cnn3c2C(=O)N(c2ccc(C(F)(F)F)c(Cl)c2)C[C@@H]3C)c1 [compound 51]
14 | 197.4 | 2.57e-09 | 118 | C[C@H]1CN(c2ccc(C(F)(F)F)c(CF)c2)C(=O)c2c(C(=O)Nc3ccncc3)cnn21 [compound 52]
15 | 141.3 | 5.25e-09 | 118 | Cc1cc(NC(=O)c2cnn3c2C(=O)N(c2ccc(C(F)(F)F)c(CF)c2)C[C@@H]3C)ccn1 [compound 54]
16 | 204.6 | 1.82e-08 | 113 | C[C@H]1CN(c2ccc(C(F)(F)F)cc2)C(=O)c2c(C(=O)NCC3CCC3)cnn21 [compound 58]
17 | 159.8 | 3.55e-08 | 103 | C[C@H]1CN(c2ccc(C(F)(F)F)cc2)C(=O)c2c(C(=O)NCC3CCCC3)cnn21 [compound 59]
18 | 161.4 | 4.37e-08 | 103 | C[C@H]1CN(c2ccc(C(F)(F)F)cc2)C(=O)c2c(C(=O)NCC3CC3)cnn21 [compound 60]
19 | 231.4 | 7.76e-08 | 104 | C[C@H]1CN(c2ccc(C(F)(F)F)cc2)C(=O)c2c(C(=O)NCC3CCCO3)cnn21 (stereo partly drawn) [compound 62]
20 | 148.8 | 1.17e-07 | 99 | Cc1cc(CNC(=O)c2cnn3c2C(=O)N(c2ccc(C(F)(F)F)cc2)C[C@@H]3C)ccn1 [compound 63]
21 | 68.3 | 1.7e-07 | 107 | C[C@H]1CN(c2ccc(C(F)(F)F)cc2)C(=O)c2c(C(=O)NCC3CCOC3)cnn21 (stereo partly drawn) [compound 64]
22 | 209.8 | 1.78e-07 | 107 | C[C@H]1CN(c2ccc(C(F)(F)F)cc2)C(=O)c2c(C(=O)NC3CCCCC3)cnn21 [compound 65]
23 | 128.8 | 8.13e-07 | 106 | C[C@H]1CN(c2ccc(C(F)(F)F)cc2)C(=O)c2c(C(=O)NCC3CCOCC3)cnn21 [compound 70]

Row | melting point [°C] | IC50 (human mGlu2 receptor) [M] | Emax (human mGlu2 receptor) [%] | SMILES
24 | 208.2 | 7.08e-08 | 111 | C[C@H]1CN(c2ccc(C(F)(F)F)cc2)C(=O)c2c(C(=O)NC3CCC3)cnn21 [compound 71]
25 | 108.6 | 2.75e-07 | 111 | C[C@H]1CN(c2ccc(C(F)(F)F)cc2)C(=O)c2c(C(=O)NC3COC3)cnn21 [compound 72]
26 | 275 | 1.35e-06 | 95 | C[C@H]1CN(c2ccc(C(F)(F)F)cc2)C(=O)c2c(C(N)=O)cnn21 [compound 73, (7S)-7-methyl-4-oxo-5-[4-(trifluoromethyl)phenyl]-6,7-dihydropyrazolo [1,5-a]pyrazine-3-carboxamide]
27 | 182 | 1.66e-09 | 112 | Cc1cc(N2C[C@H](C)n3ncc(C(=O)Nc4cncc(F)c4C)c3C2=O)ccc1Cl [compound 79]
28 | 203.08 | 1.55e-08 | 111 | COc1nc(N2C[C@H](C)n3ncc(C(=O)Nc4ccccc4)c3C2=O)ccc1Cl [compound 83, (7S)-5-(5-Chloro-6-methoxy-2-pyridyl)-7-methyl-4-oxo-N-phenyl-6,7-dihydropyrazolo[1,5-a]pyrazine-3-carboxamide]
29 | 224.9 | 1.86e-08 | 103 | Cc1cc(NC(=O)c2cnn3c2C(=O)N(c2ccc(C(F)(F)F)c(C#N)c2)C[C@@H]3C)ccn1 [compound 91]
30 | 94.5 | 1.48e-07 | 114 | Cc1cc(NC(=O)c2cnn3c2C(=O)N(c2ccccc2)C[C@@H]3C)ccn1 [compound 97]
31 | 223.3 | 4.57e-08 | 100 | Cc1ncc(NC(=O)c2cnn3c2C(=O)N(c2ccc(C(F)(F)F)cc2)C[C@@H]3C)cn1 [compound 99]
32 | 248.3 | 1.02e-07 | 104 | C[C@H]1CN(c2ccc(C(F)(F)F)cc2)C(=O)c2c(C(=O)Nc3ncccn3)cnn21 [compound 103]
33 | 181.5 | 3.16e-09 | 107 | C[C@H]1CN(c2ccc(C(F)(F)F)c(F)c2)C(=O)c2c(C(=O)Nc3cnccn3)cnn21 [compound 113]
34 | 193.3 | 6.92e-09 | 108 | COc1cc(N2C[C@H](C)n3ncc(C(=O)Nc4cnccn4)c3C2=O)ccc1C(F)(F)F [compound 115]
35 | 194.51 | 7.76e-09 | 111 | COc1cccc(NC(=O)c2cnn3c2C(=O)N(c2ccc(C(F)(F)F)c(OC)n2)C[C@@H]3C)c1 [compound 119, (7S)—N-(3-Methoxyphenyl)-5-[6-methoxy-5-(trifluoromethyl)-2-pyridyl]-7-methyl-4-oxo-6,7-dihydropyrazolo[1,5-a]pyrazine-3-carboxamide]
36 | 212.39 | 9.77e-09 | 109 | COc1ccc(NC(=O)c2cnn3c2C(=O)N(c2ccc(C(F)(F)F)c(OC)n2)C[C@@H]3C)cc1 [compound 121]
37 | 192.95 | 2.14e-08 | 113 | COc1ccccc1NC(=O)c1cnn2c1C(=O)N(c1ccc(C(F)(F)F)c(OC)n1)C[C@@H]2C [compound 122]
38 | 156.83 | 2.34e-09 | 110 | Cc1cc(N2C[C@H](C)n3ncc(C(=O)Nc4cncc(F)c4C)c3C2=O)ccc1C(F)(F)F [compound 125]
39 | 213.44 | 2.88e-09 | 106 | Cc1cc(NC(=O)c2cnn3c2C(=O)N(c2ccc(C(F)(F)F)c(Cl)c2)C[C@@H]3C)on1 [compound 128]
40 | 189.99 | 6.17e-09 | 110 | Cc1c(F)cncc1NC(=O)c1cnn2c1C(=O)N(c1ccc(Cl)cc1)C[C@@H]2C [compound 129]
41 | 211.11 | 8.51e-10 | 110 | Cc1c(F)cncc1NC(=O)c1cnn2c1C(=O)N(c1ccc(Cl)c(Cl)c1)C[C@@H]2C [compound 130]
42 | 186.35 | 2.95e-09 | 110 | Cc1c(F)cncc1NC(=O)c1cnn2c1C(=O)N(c1ccc(C(F)(F)F)c(F)c1)C[C@@H]2C [compound 131]
43 | 104.2 | 1.55e-06 | 104 | C[C@H]1CN(c2ccc(C(F)(F)F)cc2)C(=O)c2c(C(=O)NCc3ccc(N)nc3)cnn21 [compound 136, (7S)—N-[(6-Amino-3-pyridyl)methyl]-7-methyl-4-oxo-5-[4-(trifluoromethyl)phenyl]-6,7-dihydropyrazolo[1,5-a]pyrazine-3-carboxamide]
44 | 237.74 | 4.07e-08 | 107 | C[C@H]1CN(c2ccc(C(F)(F)F)cc2)C(=O)c2c(C(=O)NC(=O)C3CCC3)cnn21 [compound 137, (7S)—N-(cyclobutanecarbonyl)-7-methyl-4-oxo-5-[4-(trifluoromethyl)phenyl]-6,7-dihydropyrazolo[1,5-a]pyrazine-3-carboxamide]
45 | 212.65 | 1.66e-07 | 114 | CC(=O)NC(=O)c1cnn2c1C(=O)N(c1ccc(C(F)(F)F)cc1)C[C@@H]2C [compound 138]
46 |  | 1.91e-09 | 108 | COCC1CN(c2ccc(C(F)(F)F)c(Cl)c2)C(=O)c2c(C(=O)Nc3cccnc3)cnn21 (stereo not drawn) [compound 164]
